Source: the supplement of paper PMC10307832

Key:
Experiment in all cases: relative viability (nuclei count vs DMSO), 5 days (fraction); higher = more cells survive
[1] = compound: CC1CC(=O)N(C2=CN=C(N=C2N1C3CCCC3)NC4=C(C=C(C=C4)C(=O)NC5CCN(CC5)C)OC)C [NPK76-II-72-1] + Cc1cc(Nc2cc(N3CCN(C)CC3)nc(Sc3ccc(NC(=O)C4CC4)cc3)n2)n[nH]1 [Tozasertib] (partner 0.1 µM)
Summary of the method: (§1)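 Lung cancer cell lines in 1536-well plates got either a single drug or a fixed anchor-drug dose together with five library-drug doses (not always all listed) in √10 steps, by pin tool, on the day after seeding. Nuclei were counted after 5 days, and relative viability is the treated-to-vehicle ratio of nuclei counts. Values are medians of duplicate plates.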

BI-2536 + Navitoclax = compound: CC[C@@H]1C(=O)N(C)c2cnc(Nc3ccc(C(=O)NC4CCN(C)CC4)cc3OC)nc2N1C1CCCC1 [BI-2536] + CC1(C)CCC(c2ccc(Cl)cc2)=C(CN2CCN(c3ccc(C(=O)NS(=O)(=O)c4ccc(N[C@H](CCN5CCOCC5)CSc5ccccc5)c(S(=O)(=O)C(F)(F)F)c4)cc3)CC2)C1 [Navitoclax] (partner 0.5 µM)
Summary of the method: as §1

BI-2536 + Crizotinib = compound: CC[C@@H]1C(=O)N(C)c2cnc(Nc3ccc(C(=O)NC4CCN(C)CC4)cc3OC)nc2N1C1CCCC1 [BI-2536] + C[C@@H](Oc1cc(-c2cnn(C3CCNCC3)c2)cnc1N)c1c(Cl)ccc(F)c1Cl [Crizotinib] (partner 1 µM)
Summary of the method: as §1

BI-2536 + Pemetrexed = compound: CC[C@@H]1C(=O)N(C)c2cnc(Nc3ccc(C(=O)NC4CCN(C)CC4)cc3OC)nc2N1C1CCCC1 [BI-2536] + Nc1nc2[nH]cc(CCc3ccc(C(=O)N[C@@H](CCC(=O)O)C(=O)O)cc3)c2c(=O)[nH]1 [Pemetrexed] (partner 0.2 µM)
Summary of the method: as §1

Row | Cell Line | relative viability ([1]; first compound 0.01 µM) | relative viability ([1]; first compound 0.03162 µM) | relative viability ([1]; first compound 0.1 µM) | relative viability ([1]; first compound 0.3162 µM) | relative viability ([1]; first compound 1 µM) | relative viability (BI-2536 + Navitoclax; first compound 0.01 µM) | relative viability (BI-2536 + Navitoclax; first compound 0.03162 µM) | relative viability (BI-2536 + Navitoclax; first compound 0.1 µM) | relative viability (BI-2536 + Navitoclax; first compound 0.3162 µM) | relative viability (BI-2536 + Navitoclax; first compound 1 µM) | relative viability (BI-2536 + Crizotinib; first compound 0.01 µM) | relative viability (BI-2536 + Crizotinib; first compound 0.03162 µM) | relative viability (BI-2536 + Crizotinib; first compound 0.1 µM) | relative viability (BI-2536 + Crizotinib; first compound 0.3162 µM) | relative viability (BI-2536 + Crizotinib; first compound 1 µM) | relative viability (BI-2536 + Pemetrexed; first compound 0.01 µM) | relative viability (BI-2536 + Pemetrexed; first compound 0.03162 µM) | relative viability (BI-2536 + Pemetrexed; first compound 0.1 µM) | relative viability (BI-2536 + Pemetrexed; first compound 0.3162 µM) | relative viability (BI-2536 + Pemetrexed; first compound 1 µM)
1 | PC-3 [JPC-3] | 0.882 | 0.861 | 0.81 | 0.904 | 0.93 | 0.849 | 0.774 | 0.743 | 0.319 | 0.212 | 1.04 | 0.846 | 0.871 | 0.33 | 0.244 | 1.23 | 1.04 | 0.319 | 0.299 | 0.24
2 | BEN | 0.462 | 0.46 | 0.551 | 0.496 | 0.552 | 0.0623 | 0.0739 | 0.0643 | 0.0627 | 0.0546 | 0.849 | 0.6 | 0.556 | 0.243 | 0.216 | 0.676 | 0.83 | 0.447 | 0.325 | 0.422
3 | NCI-H1666 | 0.668 | 0.674 | 0.525 | 0.546 | 0.666 | 1.13 | 0.905 | 0.702 | 0.262 | 0.214 | 0.924 | 0.899 | 0.503 | 0.306 | 0.321 | 0.822 | 0.881 | 0.831 | 0.543 | 0.57
4 | LC-2-ad | 0.469 | 0.491 | 0.436 | 0.404 | 0.493 | 0.412 | 0.405 | 0.113 | 0.108 | 0.103 | 0.41 | 0.272 | 0.205 | 0.217 | 0.286 | 0.281 | 0.234 | 0.171 | 0.165 | 0.177
5 | SK-LU-1 | 0.341 | 0.351 | 0.361 | 0.305 | 0.38 | 0.738 | 0.894 | 0.52 | 0.118 | 0.139 | 0.857 | 0.51 | 0.357 | 0.299 | 0.279 | 0.94 | 0.938 | 0.392 | 0.265 | 0.243
6 | ChaGo-K-1 | 0.239 | 0.256 | 0.238 | 0.225 | 0.231 | 0.939 | 0.691 | 0.461 | 0.311 | 0.346 | 1.05 | 0.693 | 0.704 | 0.299 | 0.303 | 0.268 | 0.264 | 0.215 | 0.179 | 0.17
7 | COR-L 105 | 0.351 | 0.348 | 0.305 | 0.407 | 0.328 | 0.671 | 0.757 | 0.491 | 0.311 | 0.271 | 0.798 | 0.611 | 0.394 | 0.288 | 0.264 | 0.986 | 1.13 | 1.01 | 0.384 | 0.362
8 | NCI-H1975 | 0.731 | 0.893 | 0.673 | 0.665 | 0.912 | 1.12 | 1.08 | 0.932 | 0.182 | 0.17 | 1.12 | 0.504 | 0.595 | 0.185 | 0.166 | 0.297 | 0.276 | 0.22 | 0.169 | 0.168
9 | NCI-H1993 | 0.594 | 0.633 | 0.545 | 0.499 | 0.627 | 0.984 | 0.926 | 0.492 | 0.553 | 0.549 | 0.945 | 0.906 | 0.621 | 0.57 | 0.693 | 0.64 | 0.569 | 0.421 | 0.393 | 0.435
10 | RERF-LC-KJ | 0.589 | 0.51 | 0.573 | 0.548 | 0.513 | 0.861 | 0.827 | 0.727 | 0.186 | 0.263 | 0.894 | 0.711 | 0.764 | 0.174 | 0.218 | 0.46 | 0.46 | 0.31 | 0.186 | 0.213
11 | NCI-H23 | 0.367 | 0.386 | 0.35 | 0.379 | 0.378 | 0.894 | 0.632 | 0.567 | 0.192 | 0.127 | 0.622 | 0.398 | 0.426 | 0.146 | 0.141 | 0.619 | 0.756 | 0.201 | 0.128 | 0.182
12 | HCC-366 | 0.204 | 0.156 | 0.111 | 0.118 | 0.169 | 1.1 | 1.1 | 0.809 | 0.0109 | 0.0154 | 0.528 | 0.49 | 0.369 | 0.0121 | 0.0124 | 0.193 | 0.17 | 0.157 | 0.024 | 0.0288
13 | EMC-BAC-2 | 0.298 | 0.339 | 0.296 | 0.294 | 0.316 | 1.27 | 1.24 | 1.21 | 0.17 | 0.134 | 0.882 | 0.791 | 0.701 | 0.174 | 0.145 | 0.44 | 0.429 | 0.367 | 0.309 | 0.285
14 | NCI-H2405 | 0.723 | 0.871 | 0.762 | 0.743 | 0.816 | 0.7 | 0.218 | 0.106 | 0.0606 | 0.116 | 0.807 | 0.778 | 0.532 | 0.223 | 0.312 | 1.07 | 0.992 | 0.375 | 0.342 | 0.457
15 | NCI-H1944 | 0.255 | 0.283 | 0.245 | 0.228 | 0.257 | 1.05 | 1.05 | 1.05 | 0.377 | 0.157 | 1.14 | 1.3 | 1.21 | 0.184 | 0.147 | 0.631 | 0.649 | 0.425 | 0.18 | 0.142
